Data on 5 compounds can be found in patent EP0418099B1, “Process of preparation of 10, 11-Methylenedioxy-20 (RS) camptothecin and 10, 11-methylenedioxy-20 (S) - camptothecin analog” (RESEARCH TRIANGLE INSTITUTE, priority 1989, dated 1991).

The conditions of assay [1]: Wani et al., J. Med. Chem.; cited from earlier work.
A further assay relates to human colorectal tumors. The assay can be described thus: Human colon tumor histioculture, inhibition of cell proliferation. In kind it is cell-based. Conditions: concentration inhibiting by 50% the incorporation of [H]thymidine into DNA, tumors exposed to compounds for 24 hours, then thymidine for 3 days. From the text:
As used herein, the term "cancer" is synonymous with the terms "malignant tumor" and more generally "tumor". […] See H.L. Davis, Chemotherapy of Large Bowel Cancer, Cancer (Phila.) 50: 2638-2646 (1982); J.R. Neefe and P.S. Schein, Chapter 43: The Management of Disseminated Large-Bowel Cancer in Principals of Cancer Treatment, page 402, ed. S.K. Carter, E. Glatstein and R.B. Livingston, McGraw-Hill Co., 1982; K. Mekhail-Ishak, Cancer Research, 49: 4866-4869 (1989) and P.J. Ferguson and Y.C. Cheng, Cancer Research, 49: 1148-1153 (1989).
Inhibition of tumor cell proliferation was performed in vitro on human colorectal tumors obtained from surgery or biopsy, as described by Vescio et al (Proc. Nat'l. Acad. Sci. USA 84:5029-5033, 1987) with the following modifications: Tumors were cultured 1 day prior to drug addition; tumors were exposed to compounds for 24 hours, washed, and then exposed to ^3[H]thymidine for 3 days.

In the next assay the target is topoisomerase I (Bos taurus, UniProt A0AAA9TV68). Conditions: relative to camptothecin; cited from earlier work.
Another assay has as its system 9KB. The assay can be described thus: In vitro cytotoxicity test 9KB. Type of assay: cell-based. The settings on record: 9KB test, compared with camptothecin. The source says: (§1) 10,11-MDO-20(S)-CPT is also very potent in the L-1210 leukemia in vivo life prolongation assay. The synthesis of […] is known and described in Wani et al, J. Med. Chem., 29 (11), 2358-2363 (1986) and in U.S. 4,894,456.

The test system of a further assay is 9PS. Kind of assay: In vitro cytotoxicity test 9PS. In kind it is cell-based. The settings on record: 9PS test, compared with camptothecin.
Source text: as §1

A further assay has as its system L-1210 leukemia. The assay can be described thus: L-1210 leukemia in vivo life prolongation assay. More on the design: species or system mice.
Source text: as §1

Converted amounts (≈) assume the structure as drawn. Where a name gives a salt, the structure may show the parent alone.

Chain of topoisomerase I (A0AAA9TV68 entry or part of it): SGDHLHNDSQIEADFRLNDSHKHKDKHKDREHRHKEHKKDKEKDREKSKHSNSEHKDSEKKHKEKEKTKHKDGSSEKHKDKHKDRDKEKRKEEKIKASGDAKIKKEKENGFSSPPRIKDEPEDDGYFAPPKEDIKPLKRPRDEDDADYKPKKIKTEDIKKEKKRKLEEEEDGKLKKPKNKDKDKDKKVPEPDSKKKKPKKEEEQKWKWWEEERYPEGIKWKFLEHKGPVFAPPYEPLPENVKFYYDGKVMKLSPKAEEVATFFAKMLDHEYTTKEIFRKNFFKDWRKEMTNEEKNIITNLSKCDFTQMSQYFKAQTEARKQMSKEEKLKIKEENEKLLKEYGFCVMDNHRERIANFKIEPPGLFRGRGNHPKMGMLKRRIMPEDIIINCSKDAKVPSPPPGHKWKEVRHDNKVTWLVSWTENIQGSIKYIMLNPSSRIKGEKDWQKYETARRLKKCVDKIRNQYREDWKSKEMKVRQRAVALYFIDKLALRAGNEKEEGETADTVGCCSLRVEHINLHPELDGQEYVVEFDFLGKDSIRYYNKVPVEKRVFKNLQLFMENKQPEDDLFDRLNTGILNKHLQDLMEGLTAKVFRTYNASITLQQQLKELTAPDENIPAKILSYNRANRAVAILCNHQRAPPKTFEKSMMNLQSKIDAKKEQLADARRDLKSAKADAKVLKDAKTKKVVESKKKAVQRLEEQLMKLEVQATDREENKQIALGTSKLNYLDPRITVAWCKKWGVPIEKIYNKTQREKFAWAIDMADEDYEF

With `CCC1(O)C(=O)OCc2c1cc1n(c2=O)Cc2cc3cc(OC)c(OC)cc3nc2-1` (racemic) [10,11-dimethoxy-20(RS)-CPT], the activity result in assay [1] was “totally inactive”. `CCC1(O)C(=O)OCc2c1cc1n(c2=O)Cc2cc3cc4c(cc3nc2-1)OCO4` (racemic) [Compound 3, 10,11-MDO-20(RS)-CPT] yielded an IC50 in the assay with human colorectal tumors of around 5 ng/mL (≈ 0.0127 µM). Further, the “potency in the inhibition of topoisomerase I” value at topoisomerase I is given as “three to five times the potency of camptothecin”. As for `CCC1(O)C(=O)OCc2c1cc1n(c2=O)Cc2cc3c(N)c4c(cc3nc2-1)OCO4` (racemic) [Compound 4, 9-AMINO-10,11-MDO-20(RS)-CPT], the IC50 in the assay on human colorectal tumors was around 5 ng/mL (≈ 0.0123 µM). Same read-out and setting: the result for `CCC(O)(C(=O)O)c1cc2n(c(=O)c1CO)Cc1cc3cc4c(cc3nc1-2)OCO4` (racemic) [Compound 8, 10,11-MDO-20(RS)-CPT, Na^+ SALT] reads around 10 ng/mL. In the case of `CC[C@@]1(O)C(=O)OCc2c1cc1n(c2=O)Cc2cc3cc4c(cc3nc2-1)OCO4` [Compound 2, 10,11-MDO-20(S)-CPT], the ED50 result in the assay on 9KB and with 9PS was “equal to or more potent than camptothecin itself” in each case. Also, the life prolongation entry in the assay with L-1210 leukemia was “very potent”.
